Laboratory results published in patent US12044651B2, “Sensor device and methods” (SCENTIAN BIO LIMITED, priority 2016, dated 2024).
Read-outs that look alike come from different tables or passages of the source. Marks after values point to notes of the source that are not given here.

Experiments:
DmOr22a/Orco = target: T1, DmOr22a/Orco (Drosophila melanogaster, UniProt P81909); conditions: cited from earlier work; for Sensitivity limit (Log): given as Log, estimated visually from graph
T1 sequence (P81909 1-397): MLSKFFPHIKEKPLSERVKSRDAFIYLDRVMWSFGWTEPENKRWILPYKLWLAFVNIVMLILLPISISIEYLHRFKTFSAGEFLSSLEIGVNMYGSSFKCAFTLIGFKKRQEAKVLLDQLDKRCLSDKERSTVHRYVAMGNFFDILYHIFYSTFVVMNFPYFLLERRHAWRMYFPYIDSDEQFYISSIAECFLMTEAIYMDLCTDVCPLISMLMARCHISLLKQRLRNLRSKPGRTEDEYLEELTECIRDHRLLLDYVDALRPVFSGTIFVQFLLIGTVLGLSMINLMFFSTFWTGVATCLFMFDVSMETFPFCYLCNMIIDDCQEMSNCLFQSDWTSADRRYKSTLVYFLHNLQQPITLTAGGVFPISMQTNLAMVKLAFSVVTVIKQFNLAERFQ
T1 sequence (Q9VNB5 1-486 partner): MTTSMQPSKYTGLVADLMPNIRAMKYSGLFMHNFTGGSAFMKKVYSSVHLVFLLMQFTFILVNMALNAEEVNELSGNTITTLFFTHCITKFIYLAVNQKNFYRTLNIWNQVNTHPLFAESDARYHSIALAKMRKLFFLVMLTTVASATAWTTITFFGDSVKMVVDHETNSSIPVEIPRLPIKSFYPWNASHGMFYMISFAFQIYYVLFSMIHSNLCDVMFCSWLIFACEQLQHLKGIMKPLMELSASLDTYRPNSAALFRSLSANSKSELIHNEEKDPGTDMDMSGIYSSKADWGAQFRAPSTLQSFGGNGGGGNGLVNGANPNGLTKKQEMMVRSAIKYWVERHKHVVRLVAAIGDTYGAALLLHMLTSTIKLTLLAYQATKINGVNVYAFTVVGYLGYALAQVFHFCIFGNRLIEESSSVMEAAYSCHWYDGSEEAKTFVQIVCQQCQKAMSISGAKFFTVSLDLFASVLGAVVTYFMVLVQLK

Or10a = target: T2, Or10a (Drosophila melanogaster, UniProt Q9VYZ1); assay: EIS sensor, Or10a liposomes on gold electrode (Example 1); type: binding; conditions: Or10a liposomes, EIS
T2 sequence (Q9VYZ1 1-406): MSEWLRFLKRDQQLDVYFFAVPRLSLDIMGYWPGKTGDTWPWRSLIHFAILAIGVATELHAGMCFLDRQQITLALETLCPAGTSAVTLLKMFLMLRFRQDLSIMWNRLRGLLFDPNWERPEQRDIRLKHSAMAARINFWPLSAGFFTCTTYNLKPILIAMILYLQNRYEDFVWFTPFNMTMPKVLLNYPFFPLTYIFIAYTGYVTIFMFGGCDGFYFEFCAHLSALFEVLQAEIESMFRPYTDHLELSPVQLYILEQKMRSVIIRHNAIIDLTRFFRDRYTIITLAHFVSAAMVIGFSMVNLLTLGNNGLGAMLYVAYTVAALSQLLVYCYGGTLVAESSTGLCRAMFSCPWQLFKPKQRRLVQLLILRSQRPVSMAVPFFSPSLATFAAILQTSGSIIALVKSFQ
Description: Liposomes were prepared using a phospholipid solution produced by evaporating solutions containing: phosphatidylethanolamine (PE), phosphatidylserine (PS), phosphatidylcholine (PC), and cholesterol (CH) at a molar ratio of 5:3:3:1 in a small glass tube under a stream of N2 gas, then desiccating under vacuum for 1 h. […] To promote the formation of liposomes, 10 freeze/thaw steps were performed by transferring the tube from liquid nitrogen to a 40° C. water bath. Liposomes were then sized by passing the lipid solution 11 times through a 100-nm polycarbonate membrane using an Avestin LiposoFAST extruder unit (Avestin, Germany). Glycerol was added at 10% of the final volume and aliquots at 10 mg/mL were snap frozen in liquid nitrogen and stored at -80° C. Prior to their use, liposomes were defrosted on ice and then destabilized by incubating with 0.2% CHAPS for 15 min at room temperature. Then 200 μg of purified odorant receptor^14 was added to 1 mg of liposomes and rotated at 10 rpm for 1 h at room temperature. […] The Bio-Beads were removed after each incubation period. The OR integrated liposomes were pelleted by centrifugation at 100,000 g for 1 h, and were resuspended in 500 μL of rehydration buffer. Integration of OrXs into liposomes was assessed by density gradient ultracentrifugation (DGU) using Accudenz (Accurate Chemical & Scientific Corporation, USA). […] The sample was then centrifuged at 100,000 g for 4 h at 4° C. Liposomes will float to the top of the gradient after Accudenz DGU due to their low density. 1.3 Electrode Cleaning Gold disk (2 mm) electrodes were cleaned with polishing with Alumina paste for 2 minutes, ultra-sonicated in pure ethanol and then Milli-Q water for 5 minutes each. […] Charge transfer resistance (Rct) of electrodes were calculated by fitting obtained data to a Randles' equivalent circuit [Rs+CPE/(Rct+W)] comprising of a solution resistance (Rs) in series with a constant phase element (CPE) and in parallel with charge transfer resistance (Rct) and Warburg diffusion element. […]

| Compound | Sensitivity limit (Log) (DmOr22a/Orco; ref 23) | EC50 (DmOr22a/Orco; ref 24) [µM] | Sensitivity limit (Log) (DmOr22a/Orco; ref 24) | EC50 (Or10a) [µM] | Sensitivity limit (lowest detectable concentration) (Or10a; signal/noise >3) [pM] |
| --- | --- | --- | --- | --- | --- |
| CCCCCC(=O)OC [methyl hexanoate] | Log = −7.5* | 1.17 | Log = −7* | – | – |
| COC(=O)c1ccccc1O [methyl salicylate] | – | – | – | ~0.001 | 330 |
